{
  "source": "patent US11154551B2",
  "about": "“HDAC1,2 inhibitors and methods of using the same” (UNIVERSITY OF UTAH RESEARCH FOUNDATION, priority 2014, dated 2021)",
  "key": {"[1]": {"system": "glioma cell lines U-87 and U-251", "assay": "propidium iodide FACS cell cycle analysis", "format": "cell-based", "settings": "2 μM, 72 hours", "protocol": "Cells were treated with ACY957 or DMSO for 72 hours, stained with propidium iodide, and assessed by FACS. The percentage of cells in Sub-G1, G1, S, and G2-M phases were quantified for each sample.\nGlioma is a type of primary brain tumor that originates in the glial cells present in the brain or spinal cord. The glioma cell lines U-87 and U-251 were treated with either DMSO or 2 μM ACY957 for 72 hours and then subjected to propidium iodide staining and FACS analysis to evaluate cell cycle progression."}, "Karpas-422 cells": {"system": "Karpas-422 cells", "assay": "RNA-seq gene expression analysis", "format": "cell-based, human", "settings": "24 h"}, "[2]": {"system": "Karpas-422 and SUDHL4 cells", "assay": "Western blot of chromatin extracts for H3K27ac and H3K27me3", "format": "cell-based, human", "protocol": "Western blot analysis was done with anti-H3K27ac, H3K27me3 or EZH2 and histone H3 served as a loading control.\nFollowing DMSO or ACY-957 treatment, cells were exposed to a 5Gy dose of ionizing radiation and allowed to recover for 30 minutes prior to chromatin extraction. Western blots were performed with anti-H3K27ac or anti-H3K27me3 with histone H3 serving as a loading control. (B-E): Karpas-422, SUDHL4, WSU-DLCL2 and HeLa cells were laser micro-irradiated and allowed to recover for 15 minutes before fixation and immunofluorescence staining with anti-γH2AX and anti-H3K27me3. Subsequently, the percentage of cells with H3K27me3 lines that co-localized with γH2AX were counted. Merge is the overlay of γH2AX and H3K27me3 pictures. (F-I): At least 100 cells with γH2AX lines were counted in each experiment. The quantitation shown was the average calculated from independent experiments+/−standard error. Quantitation from five, seven, five and six independent experiments performed in Karpas-422, SUDHL4, WSU-DLCL2 and HeLa cells, respectively, was used in the graph shown in this figure. (J): Karpas-422 cells were micro-irradiated with a laser and allowed to recover for 15 minutes before fixation and immunofluorescence staining was performed with anti-γH2AX and anti-H3K27ac.\nProtein Preparation and Western Blot Analysis.\nThe histone H3K27 residue was subjected to reversible acetylation and methylation. […] We also treated cells with the second EZH2 inhibitor, GSK126 alone, or combined with ACY-957 (ACY-957+GSK126). […] Cells were treated for 48 h prior to preparing chromatin extracts for Western analysis using antibodies recognizing H3K27ac or H3K27me3.\nWe first examined whether inhibiting HDAC1,2 activity induced any change in global H3K27ac or H3K27me3 on chromatin following DNA damage and during DNA repair. SUDHL4 or Karpas-422 cells with or without exposure to ionizing radiation (IR) were initially treated with DMSO or ACY-957 for 48 hr. Chromatin extracts were prepared from these cells following a 30 min recovery period (the repair phase) and changes in histone modifications were examined by Western blotting."}, "[3]": {"system": "Karpas-422 (EZH2GOF) cells", "assay": "neutral comet assay of DSB repair", "format": "cell-based, human", "source_text": "(A) Measurement of repair efficiency in SUDHL5 (EZH2^WT) and Karpas-422 (EZH2^GOF) cells using neutral comet assay that detects only double-strand breaks (DSBs). In the comet, the head (H) represents intact DNA and the tail (T) represents the number of DSBs in a single cell. Tail moment is a measure of length and intensity of DNA in the tail, and the average tail moments from 100 comets are indicated within the figure for each cell/treatment combination. Doxo indicates doxorubicin; H121N indicates HDAC1,2 inhibitor. (B) DNA damage in EZH2GOF cells following knockdown of HDAC1,2 using siRNA. NT indicates non-targeting control siRNA; HDAC1,2 siRNA indicates combined treatment with HDAC1 siRNA and HDAC2 siRNA. (C) Karpas-422 cells treated with DMSO solvent or HDAC1,2 inhibitor were subjected to microlaser irradiation. H3K27me3, γH2AX, Bmi-1, and serine2-phosphorylated RNA Polymerase II (engaged in transcriptional elongation) were monitored at laser break sites (arrows) after 15 minutes of recovery time. Numbers overlaying the images indicate percentages of cells with γH2AX lines that co-localized with H3K27me3, Bmi-1, or Pol2Ser2-P lines from at least four independent experiments (p value<0.01).\nIndeed, EZH2, H3K27me3, and HDAC1,2 all localize to sites of DNA breaks, which links them to DNA repair. […]"}},
  "data": [
    {"smiles": "Nc1ccc(-c2cccs2)cc1NC(=O)c1ccc2nc(N3CCNCC3)ccc2c1", "note": "[ACY-957, N-(2-amino-5-(thiophen-2-yl)phenyl)-2-(piperazin-1-yl)quinoline-6-carboxamide]", "values": [
      {"measurement": "effect on the cell cycle", "setting": "[1]", "value": "No effect on the cell cycle"},
      {"measurement": "number of genes up regulated", "setting": "Karpas-422 cells; 2 μM, vs DMSO", "value": 492, "unit": "genes"},
      {"measurement": "BLIMP1 expression up regulation", "setting": "Karpas-422 cells; DESeq analysis of RNA-seq", "value": 1.7, "unit": "fold"},
      {"measurement": "global H3K27ac levels", "setting": "[2]; 48 h, chromatin extracts", "value": "robust increase in global H3K27ac levels"},
      {"measurement": "global H3K27me3 levels", "setting": "[2]; 48 h, chromatin extracts", "value": "remained unchanged"},
      {"measurement": "global H3K27me3 levels on chromatin", "setting": "[2]; 48 hr, 30 min recovery from IR", "value": "concomitant decrease in global H3K27me3 levels on chromatin was not observed"},
      {"measurement": "global H3K27ac levels on chromatin", "setting": "[2]; 48 hr, with or without exposure to IR", "value": "increased"},
      {"measurement": "DSBs, comet tail moment", "setting": "[3]", "value": "increase in comet tail moment"}
    ]}
  ]
}
